Source: ChEMBL document CHEMBL5126518, “Quercetin derivatives: Drug design, development, and biological activities, a review” (Eur J Med Chem, 2022)
In brackets after ≈: the same amount, converted by molar mass.

How the values were obtained:
[1] = Antioxidant activity assessed as DPPH radical scavenging activity after 30 mins under dark condition; assay type: functional
[2] = Inhibition of Escherichia coli topoisomerase 4 decatenation activity by gel electrophoresis
[3] = tested on: Staphylococcus gallinarum; assay: Antibacterial activity against Staphylococcus gallinarum ATCC 9184 assessed as cell growth inhibition by agar dilution method; assay type: functional
Listeria monocytogenes = assay: Antibacterial activity against Listeria monocytogenes ATCC 15313 assessed as cell growth inhibition by agar dilution method; assay type: functional
[4] = Inhibition of Escherichia coli topoisomerase 2 supercoiling activity by gel electrophoresis
Staphylococcus aureus [5] = assay: Antibacterial activity against Staphylococcus aureus ATCC 12600 assessed as cell growth inhibition by agar dilution method; assay type: functional
Escherichia coli = assay: Antibacterial activity against Escherichia coli ATCC 25922 assessed as cell growth inhibition by agar dilution method; assay type: functional
[6] = target: UDP-galactopyranose mutase (Mycobacterium tuberculosis) (UniProt P9WIQ1); assay: Inhibition of Mycobacterium tuberculosis UGM at 20 uM by HPLC inhibition assay relative to control
UDP-galactopyranose mutase (Mycobacterium tuberculosis), sequence (P9WIQ1 whole entry, looked up): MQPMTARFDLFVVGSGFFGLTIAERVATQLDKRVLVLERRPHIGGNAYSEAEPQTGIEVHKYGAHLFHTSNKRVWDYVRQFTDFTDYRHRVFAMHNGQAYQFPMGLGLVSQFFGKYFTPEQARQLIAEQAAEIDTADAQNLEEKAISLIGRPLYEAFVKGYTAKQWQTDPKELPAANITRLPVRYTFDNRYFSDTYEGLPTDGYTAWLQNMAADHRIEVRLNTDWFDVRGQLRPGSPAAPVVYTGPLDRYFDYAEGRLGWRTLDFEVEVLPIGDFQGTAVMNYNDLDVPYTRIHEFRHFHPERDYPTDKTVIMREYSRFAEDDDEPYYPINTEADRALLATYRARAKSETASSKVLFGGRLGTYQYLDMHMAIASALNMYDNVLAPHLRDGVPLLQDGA

[7] = target: UDP-galactopyranose mutase (Mycobacterium tuberculosis, UniProt P9WIQ1); assay: Binding affinity to Mycobacterium tuberculosis UGM assessed as dissociation constant by fluorescence polarization assay
UDP-galactopyranose mutase, sequence (P9WIQ1 whole entry): as the sequence (P9WIQ1 whole entry, looked up) above

[8] = Antioxidant activity assessed as DPPH radical scavenging activity up to 2 mM relative to control; assay type: functional
PC-3 = assay: Cytotoxicity against human PC-3 cells assessed as cell growth inhibition measured after 48 hrs by MTT assay; assay type: functional
[9] = target: Bcl-2-like protein 1 (Homo sapiens) (UniProt Q07817); assay: Binding affinity to recombinant human Bcl-xL assessed as change in enthalpy by MM-PBSA method
Bcl-2-like protein 1 (Homo sapiens), sequence (Q07817 whole entry): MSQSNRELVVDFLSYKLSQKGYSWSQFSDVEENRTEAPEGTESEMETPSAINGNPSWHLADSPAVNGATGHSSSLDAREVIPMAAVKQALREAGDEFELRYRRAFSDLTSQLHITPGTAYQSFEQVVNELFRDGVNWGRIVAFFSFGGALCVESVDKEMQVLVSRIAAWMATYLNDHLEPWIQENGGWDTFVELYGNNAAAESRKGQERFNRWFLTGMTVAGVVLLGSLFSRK

[10] = Selectivity ratio of GI50 for cytotoxicity against human DU-145 cells to GI50 for cytotoxicity against human PC-3 cells by MTT assay; assay type: functional
MDA-MB-231 = assay: Antiproliferative activity against human MDA-MB-231 cells assessed as cell growth inhibition measured after 72 hrs by MTT assay; assay type: functional, cell-based; settings: MDA-MB-231, 72 h
Acinetobacter baumannii = assay: Antibacterial activity against carbapenem-resistant Acinetobacter baumannii AMC-AB 643 assessed as fold reduction in ceftazidime MIC incubated for 20 hrs by checkerboard synergy test; assay type: functional
Staphylococcus aureus [11] = assay: Antibiofilm activity against methicillin sensitive Staphylococcus aureus ATCC 29213 assessed as inhibition of biofilm formation incubated for 24 hrs by crystal violet staining based assay; assay type: functional, organism-based; settings: ATCC 29213, 24 h
Staphylococcus aureus [12] = assay: Antibiofilm activity against vancomycin-intermediate Staphylococcus aureus ATCC 700699 assessed as inhibition of biofilm formation incubated for 24 hrs by crystal violet staining based assay; assay type: functional, organism-based; settings: ATCC 700699, 24 h
Pseudomonas aeruginosa [13] = assay: In vivo antibacterial activity against carbapenem-susceptible Pseudomonas aeruginosa ATCC 27853 infected in CD-1 mouse assessed as mouse survival at 40 mg/kg per day administered for 7 days in presence of ceftazidime; assay type: functional; settings: time 7 day
Pseudomonas aeruginosa [14] = assay: Antibacterial activity against carbapenem-resistant Pseudomonas aeruginosa CCARM2321 assessed as fold reduction in ceftazidime MIC incubated for 20 hrs by checkerboard synergy test; assay type: functional
MCF7 = assay: Induction of apoptosis in human MCF7 cells assessed as early apoptotic cells at 50 uM measured after 12 hrs by annexin V-FITC/propidium iodide staining based flow cytometry relative to control; assay type: functional
Staphylococcus aureus [15] = assay: Antibiofilm activity against heteroresistant vancomycin-intermediate Staphylococcus aureus ATCC 700698 assessed as inhibition of biofilm formation incubated for 24 hrs by crystal violet staining based assay; assay type: functional, organism-based; settings: ATCC 700698, 24 h
Staphylococcus aureus [16] = assay: Antibiofilm activity against methicillin resistant Staphylococcus aureus AMCSA 5016 assessed as inhibition of biofilm formation incubated for 24 hrs by crystal violet staining based assay; assay type: functional, organism-based; settings: AMCSA 5016, 24 h
[17] = Selectivity index, ratio of CTD50 for cytotoxicity against MDCK cells to EC50 for antiviral activity against Influenza A H1N1/pdm09 infected in MDCK cells; assay type: toxicity, cell-based; settings: dog, read-out: Selectivity Index
Influenza A virus = assay: Antiviral activity against Influenza A virus H1N1/pdm09 infected in MDCK cells pretreated with compound for 1 hr followed virus infection measured after 48 hrs; assay type: functional, organism-based
[18] = Cytotoxicity against MDCK cells assessed as reduction in cell viability incubated for 48 hrs by MTT assay; assay type: toxicity, cell-based, Canis lupus familiaris; settings: dog, read-out: CTD50
Candida albicans [19] = assay: Antifungal activity against Candida albicans 10/15 assessed as fungal growth inhibition measured after 24 hrs by microdilution assay; assay type: functional
Candida albicans [20] = assay: Antifungal activity against Candida albicans 13/15 assessed as fungal growth inhibition measured after 24 hrs by microdilution assay; assay type: functional
Candida albicans [21] = assay: Antifungal activity against Candida albicans 475/15 assessed as fungal growth inhibition measured after 24 hrs by microdilution assay; assay type: functional
Candida albicans [22] = assay: Antifungal activity against Candida albicans 527/14 assessed as fungal growth inhibition measured after 24 hrs by microdilution assay; assay type: functional

**Q.** For `COc1cc(OC)c2/c(=N/N)c(OC)c(-c3ccc(OC)c(OC)c3)oc2c1`, which IC50 [1] is on record?
**A.** The IC50 was 40 µM.

**Q.** Which IC50 [2] does the source give for `CC(=O)OC[C@H]1OC(OC(C)=O)[C@H](NCc2c(O)cc(O)c3c(=O)cc(-c4ccc(O)c(O)c4)oc23)[C@@H](OC(C)=O)[C@@H]1OC(C)=O` (stereo partly specified) here?
**A.** The IC50 was 0.25 µg/mL (≈ 0.387 µM).

**Q.** What about the MIC [3] of the same compound?
**A.** The MIC was 0.05 µg/mL (≈ 0.0775 µM).

**Q.** What about the MIC (Listeria monocytogenes) of the same compound?
**A.** Its MIC is 0.5 µg/mL (≈ 0.775 µM).

**Q.** What about the IC50 [4] of the same compound?
**A.** Its IC50 is 0.25 µg/mL (≈ 0.387 µM).

**Q.** And the MIC (Staphylococcus aureus [5])?
**A.** The MIC was 1 µg/mL (≈ 1.55 µM).

**Q.** What about the MIC (Escherichia coli) of the same compound?
**A.** Its MIC is 2 µg/mL (≈ 3.1 µM).

**Q.** Which inhibition [6] does the source give for `O=c1c(O)c(-c2ccc(O)c(O)c2)oc2c(CN3CCOCC3)c(O)cc(O)c12` here?
**A.** The inhibition was 100%.

**Q.** Which IC50 [1] does the source give for `COc1cc(OC)c2/c(=N/c3ccccc3)c(OC)c(-c3ccc(OC)c(OC)c3)oc2c1` here?
**A.** The IC50 was 490 µM.

**Q.** With `O=c1c(O)c(-c2ccc(O)c(O)c2)oc2c(CN3CCCC3)c(O)cc(O)c12` as the compound, how does the inhibition [6] read?
**A.** Its inhibition is 47.8%.

**Q.** And the Kd [7]?
**A.** Its Kd is greater than 2000 µM.

**Q.** With `Nc1c(-c2ccc(O)c(O)c2)oc2cc(O)cc(O)c2c1=O` as the compound, how does the Activity [8] read?
**A.** The Activity was 80%.

**Q.** For `COc1cc(OC)c2/c(=N/c3cc(OC)c(OC)c(OC)c3)c(OC)c(-c3ccc(OC)c(OC)c3)oc2c1`, which IC50 [1] is on record?
**A.** The IC50 was 220 µM.

**Q.** With `COc1ccc(CNCc2c(O)cc(O)c3c(=O)cc(-c4ccc(O)c(O)c4)oc23)cc1` as the compound, how does the IC50 [2] read?
**A.** Its IC50 is 0.25 µg/mL (≈ 0.574 µM).

**Q.** What about the IC50 [4] of the same compound?
**A.** The IC50 was 0.25 µg/mL (≈ 0.574 µM).

**Q.** With `O=C(O)CC[C@H](NC(=O)Oc1ccc(-c2oc3cc(O)cc(O)c3c(=O)c2O)cc1O)C(=O)O` as the compound, how does the GI50 (PC-3) read?
**A.** Its GI50 is 6 µM.

**Q.** What about the deltaH [9] of the same compound?
**A.** The deltaH was 47.2 kcal/mol.

**Q.** What about the RatioGI50 [10] of the same compound?
**A.** The RatioGI50 was 17.

**Q.** For `C[C@@H]1O[C@@H](OC[C@H]2O[C@@H](Oc3c(-c4ccc(O)c(O)c4)oc4c(CN5CCCC5)c(O)c(CN5CCCC5)c(O)c4c3=O)[C@H](O)[C@@H](O)[C@@H]2O)[C@H](O)[C@H](O)[C@H]1O`, which IC50 (MDA-MB-231) is on record?
**A.** Its IC50 is 7.57 µM.

**Q.** For `O=c1c(O)c(-c2ccc(F)c(F)c2)oc2cc(O)cc(O)c12`, which “fold change (FC)” value (Acinetobacter baumannii) is on record?
**A.** The value was 4.

**Q.** And the IC50 (Staphylococcus aureus [11])?
**A.** Its IC50 is 1.8 µg/mL (≈ 5.88 µM).

**Q.** What about the IC50 (Staphylococcus aureus [12]) of the same compound?
**A.** Its IC50 is 1.8 µg/mL (≈ 5.88 µM).

**Q.** And the Activity (Pseudomonas aeruginosa [13])?
**A.** Its Activity is 20%.

**Q.** And the “fold change (FC)” value (Pseudomonas aeruginosa [14])?
**A.** The value was 8.

**Q.** What about the Activity [8] of the same compound?
**A.** The Activity was 50%.

**Q.** And the Activity (MCF7)?
**A.** The Activity was 47.7%.

**Q.** What about the IC50 (Staphylococcus aureus [15]) of the same compound?
**A.** Its IC50 is 1.8 µg/mL (≈ 5.88 µM).

**Q.** What about the IC50 (Staphylococcus aureus [16]) of the same compound?
**A.** The IC50 was 1.8 µg/mL (≈ 5.88 µM).

**Q.** For `CCOC1(Br)C(=O)c2c(O)c(Br)c(O)c(Br)c2OC1(Br)c1cc(O)c(O)c(Br)c1` (stereo unspecified), which selectivity ratio [17] is on record?
**A.** The selectivity ratio was 16.

**Q.** What about the EC50 (Influenza A virus) of the same compound?
**A.** Its EC50 is 6 µg/mL (≈ 8.26 µM).

**Q.** And the CC50 at 48 h [18]?
**A.** Its CC50 at 48 h is 97.7 µg/mL (≈ 134 µM).

**Q.** What does the source list for `O=c1cc(-c2ccc(O)c(O)c2)oc2cc(O)cc(O)c12` [LUTEOLIN]?
**A.** IC50 (MDA-MB-231): 7.29 µM; MIC (Candida albicans [19]): 37.5 µg/mL (≈ 131 µM); MIC (Candida albicans [20]): 37.5 µg/mL (≈ 131 µM); MIC (Candida albicans [21]): 37.5 µg/mL (≈ 131 µM); MIC (Candida albicans [22]): 37.5 µg/mL (≈ 131 µM)
